Experiments:
[1] = molecular target: T1, GST-ABI2 in the presence of PYR1^K59R,F108A,S122G (Arabidopsis thaliana, UniProt O49686, F108A/K59R/S122G); test: PP2C activity assay (pNPP); type: biochemical; settings: PYR1^K59R,F108A,S122G 1200 nM, PP2C 600 nM
T1 construct: 6x-His; made in house; host or cells: E. coli BL21[DE3]pLysS (receptor)
Description: (§1) One possibility in any functional screen conducted in a heterologous organism such as S. cerevisiae is that mutants identified may only work in the context of the heterologous expression system. We therefore examined whether recombinant PYR1^K59R,F108A,S122G and PYR1^MANDI proteins inhibit PP2C activity in vitro, as is well documented for wild type PYR1 in response to ABA (Park et al., 2009). Both receptors were cloned into pET28 to generate 6×-His (SEQ ID NO:109) tagged receptors. These were expressed in BL21[DE3]pLysS E. coli host cells at 18° C. overnight. 6×-His-fusion proteins were purified from sonicated lysates using Ni-NTA agarose (Qiagen, USA), according to the manufacturer's instructions. For PP2C assays, recombinant GST-HAB1 and GST-ABI2 were expressed and purified as described previously (Park et al., 2009) and PP2C activity assayed conducted using the colorimetric phosphatase substrate para-nitrophenyl phosphate (pNPP) as previously described (Park et al., 2009). PP2C assays were conducted using 600 nM of PP2C and 1200 nM recombinant receptors. […] We note that these mutant receptors cannot respond to ABA due to the K59R mutation they contain, which abolishes ABA responsiveness.

[2] = molecular target: T2, GST-ABI2 in the presence of PYR1^MANDI (Arabidopsis thaliana, UniProt O49686, F108A/F159L/K59R/S122G/V81I/Y58H); test: PP2C activity assay (pNPP); type: biochemical; settings: PYR1^MANDI 1200 nM, PP2C 600 nM
T2 construct: 6×-His (N); made in house; host or cells: BL21[DE3]pLysS E. coli (receptor)
Description: as §1

[3] = molecular target: T3, GST-HAB1 in the presence of PYR1^K59R,F108A,S122G (Arabidopsis thaliana, UniProt O49686, F108A/K59R/S122G); test: PP2C activity assay (pNPP); type: biochemical; settings: PYR1^K59R,F108A,S122G 1200 nM, PP2C 600 nM
T3 construct: 6x-His; made in house; host or cells: E. coli BL21[DE3]pLysS (receptor)
Description: as §1

[4] = molecular target: T4, GST-HAB1 in the presence of PYR1^MANDI (Arabidopsis thaliana, UniProt O49686, F108A/F159L/K59R/S122G/V81I/Y58H); test: PP2C activity assay (pNPP); type: biochemical; settings: PYR1^MANDI 1200 nM, PP2C 600 nM
T4 construct: 6×-His (N); made in house; host or cells: BL21[DE3]pLysS E. coli (receptor)
Description: as §1

[5] = test system: 35S::PYR1^MANDI lines MDP1, MDP2, MDP3; test: seed germination assay, 250 nM mandipropamid; type: in vivo, Arabidopsis; settings: 3 days post-stratification
Description: To further characterize the physiological effects of the PYR1^MANDI/mandipropamid interaction, we characterized three independently generated transgenic Arabidopsis lines in more detail. These lines, initially named E9, E16 and E31 are henceforth referred to as MPD1, MPD2 and MPD3. Each of these lines is homozygous for a single 35S::PYR1^MANDI insertion site and is the result of independent transformation events. We first used germination assays to characterize the relative mandipropamid sensitivity of these lines. Seeds for the transgenics and wild type control were surface sterilized with bleach and then stratified for 4 days at 4° C. on 0.7% agar petri plates containing ½ MS salts and 0.5% sucrose in addition to either 250 nM mandipropamid or a mock treatment of 0.1% DMSO (the carrier solvent). After stratification, the plates were transferred to a growth chamber operating on a 16-hour day length cycle. Seed germination was scored 3 days post-stratification. […] To more definitively assess the relative sensitivity of the MDP1 and MDP2 lines to mandipropamid, we conducted germination dose-response experiments (using the same procedure described above) and confirmed that the MDP1 line is more sensitive to mandipropamid than MDP2 (FIG. 7B).

[6] = test system: transgenic 35S::PYR1^MANDI tomato plants; test: thermal imaging of leaf temperature; type: in vivo; settings: 10 μM mandipropamid, 24 hours post treatment
Description: The core ABA response pathway is highly conserved and it is therefore expected that PYR1^MANDI should be able to activate ABA responses in response to mandipropamid in most land plants. To investigate if the physiological activity of PYR1^MANDI is functional in other species besides Arabidopsis we made transgenic 35S::PYR1^MANDI tomato. The same construct utilized for construction of Arabidopsis transgenics (described in Example 5) was modified to contain a kanamycin selection marker. Tomato was transformed by Agrobacterium-mediated transformation, which was conducted as described by Sun et al. (2006) with a few modifications. Surface sterilized tomato seeds (strain UC82B) were germinated on sterilized wet filter paper in a petridish. Cotyledons from 7-day old seedlings were excised and dipped into a suspension of Agrobacterium in MS medium containing 100 μM acetosyringone and 10 μM 2-mercaptoethanol for 10 minutes. Explants were then placed on co-cultivation medium containing MS salts, 3% sucrose, 0.3% Gelite and 1.5 mg/L zeatin. After 3 days of co-culture in darkness, the explants were transferred onto callus induction medium containing MS salts, 3% sucrose, 0.3% Gelite, 1.5 mg/L zeatin and 100 mg/L kanamycin and 125 mg/L carbenicillin. Explants were transferred to freshly prepared medium every 2 weeks. […]

T2 sequence (O49686 whole entry Y58H/K59R/V81I/F108A/S122G/F159L): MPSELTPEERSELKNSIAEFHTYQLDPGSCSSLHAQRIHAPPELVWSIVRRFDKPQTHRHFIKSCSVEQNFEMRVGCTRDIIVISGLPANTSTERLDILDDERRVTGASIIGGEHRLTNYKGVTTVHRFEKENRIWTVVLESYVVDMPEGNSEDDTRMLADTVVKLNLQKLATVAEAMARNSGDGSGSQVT
T2 sequence (O04719 whole entry partner): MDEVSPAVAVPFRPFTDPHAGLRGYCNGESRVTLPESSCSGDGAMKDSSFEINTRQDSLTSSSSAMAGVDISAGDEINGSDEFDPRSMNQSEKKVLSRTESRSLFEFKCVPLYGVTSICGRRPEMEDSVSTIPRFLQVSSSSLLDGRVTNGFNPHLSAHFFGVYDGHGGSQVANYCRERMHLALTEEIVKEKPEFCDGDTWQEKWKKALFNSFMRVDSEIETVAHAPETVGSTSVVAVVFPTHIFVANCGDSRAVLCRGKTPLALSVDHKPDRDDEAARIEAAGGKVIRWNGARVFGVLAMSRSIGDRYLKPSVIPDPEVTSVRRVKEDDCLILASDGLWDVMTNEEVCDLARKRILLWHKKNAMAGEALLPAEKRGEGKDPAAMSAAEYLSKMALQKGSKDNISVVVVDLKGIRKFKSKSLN
T4 sequence (O49686 whole entry Y58H/K59R/V81I/F108A/S122G/F159L): as the sequence (O49686 whole entry Y58H/K59R/V81I/F108A/S122G/F159L) above
T4 sequence (Q9CAJ0 23-511 partner): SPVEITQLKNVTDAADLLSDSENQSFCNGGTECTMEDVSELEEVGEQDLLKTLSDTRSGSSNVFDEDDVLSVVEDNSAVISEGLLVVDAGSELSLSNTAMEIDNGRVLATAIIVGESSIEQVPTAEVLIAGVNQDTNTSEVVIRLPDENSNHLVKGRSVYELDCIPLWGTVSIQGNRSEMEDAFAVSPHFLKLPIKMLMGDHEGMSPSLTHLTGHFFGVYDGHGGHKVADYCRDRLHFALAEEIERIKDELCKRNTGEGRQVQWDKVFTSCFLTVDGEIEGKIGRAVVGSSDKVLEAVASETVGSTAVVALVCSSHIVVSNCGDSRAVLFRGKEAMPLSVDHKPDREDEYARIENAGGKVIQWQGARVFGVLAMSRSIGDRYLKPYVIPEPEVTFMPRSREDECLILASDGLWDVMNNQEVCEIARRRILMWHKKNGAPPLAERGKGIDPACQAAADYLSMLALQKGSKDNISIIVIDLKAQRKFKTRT
T3 sequence (O49686 whole entry K59R/F108A/S122G): as the sequence (O49686 whole entry Y58H/K59R/V81I/F108A/S122G/F159L) above, with H58Y, I81V, L159F counted along it
T3 sequence (Q9CAJ0 23-511 partner): as the sequence (Q9CAJ0 23-511 partner) above
T1 sequence (O49686 whole entry K59R/F108A/S122G): as the sequence (O49686 whole entry Y58H/K59R/V81I/F108A/S122G/F159L) above, with H58Y, I81V, L159F counted along it
T1 sequence (O04719 whole entry partner): as the sequence (O04719 whole entry partner) above

Compound: C#CCOc1ccc(CCNC(=O)C(OCC#C)c2ccc(Cl)cc2)cc1OC (stereo not shown) [Mandipropamid, mandipropamid]
- inhibition of ABI2 PP2C activity [1]: saturable inhibition
- inhibition of ABI2 PP2C activity [2]: saturable inhibition
- inhibition of HAB1 PP2C activity [3]: saturable inhibition
- inhibition of HAB1 PP2C activity [4]: saturable inhibition
- seed germination ([5]; MDP1 seed, 250 nM mandipropamid): near complete germination inhibition
- seed germination ([5]; MDP3, 250 nM mandipropamid): minimal sensitivity
- leaf temperature [6]: increase in leaf temperature
